In PubChem BioAssay (NCI):
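Values below derive from 48-hour exposures of cells grown in 96-well plates, with endpoints linearly interpolated between the two concentrations bracketing the appropriate inhibition level. GI50: concentration for 50% inhibition of growth. TGI marks complete inhibition of growth.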

Tested on: UACC-257 melanoma
Test: inhibition of tumour cell growth, NCI panel, 48 h

| SMILES | TGI |
| --- | --- |
| CCC1(CC)C(=O)NC(=S)N=C1N | > 100 µM |
| O=c1oc2ccccc2c2nc3ccccc3cc12 | > 100 µM |
| CCCC[C@@H]1CCN2C[C@@H](O)[C@@H](O)[C@H]2[C@@H]1O | > 100 µM |
| O=C(NN1C(=O)CSC1c1ccc(Cl)c(Cl)c1)c1ccncc1 (stereo not drawn) | > 100 µM |
| Clc1cccc(C2ON=C(c3ccccc3)N2C23CC4CC(CC(C4)C2)C3)c1Cl (stereo not drawn) | > 10 µM |
| CCN(CC(=O)O)CC(=O)O | > 100 µM |
| COC1OC2COC(C)(C)OC2C2OC(C)(C)OC12 (stereo not drawn) | > 100 µM |
| CCNC(=S)N/N=C/c1ccccn1 | > 100 µM |
| O=C1NN=C(c2c[nH]c3ccccc23)CC1NCc1ccccc1 (stereo not drawn) | > 100 µM |
| C=C1CC=CC(C)(C)C1C/C=C(\C)C(O)CBr (stereo not drawn) | > 100 µM |
| O=C(NCCCNCCCCNCCCNC(=O)C(F)(F)F)C(F)(F)F | > 100 µM |
| CCOC(=O)C(C)NC(=O)N(C)C12CC3CC(CC(C3)C1)C2 (stereo not drawn) | 406 µM |
| O=C(O)c1cc2ccccc2c(S(=O)(=O)O)c1O | > 100 µM |
| O=c1c2cc3c(=O)n(CCc4ccccc4CO)c(=O)c3cc2c(=O)n1CCc1ccccc1CO | > 100 µM |
| COC(=O)c1sc2ncc3c(c2c1N)CC(C)CC3 (stereo not drawn) | > 100 µM |
| CCc1cc(=O)n(/C(C)=C/c2ccccc2)n1C | > 100 µM |
| CCOC(=O)c1[nH]c2nc(SC)nc(NC)c2c1N | > 100 µM |
| Cc1cccc(NC(Nc2cccc(C)c2)=C(C(Cl)=C(Cl)Cl)[N+](=O)[O-])c1 | > 53.4 µM |
| CC1=CCC[C@H]2[C@](C)(CC3=CC(=O)C4SCCSC4C3=O)[C@@H](C)CC[C@]12C (stereo partly drawn) | 64 µM |
| C/C(=N\Nc1nc2ccccc2s1)c1cccnn1 | > 100 µM |
| COC(=O)C1=C(C(=O)OC)C2(C)CCC(=O)C1O2 (stereo not drawn) | > 10 µM |
| FC(F)=C(c1ccc(-c2ccc(Cl)cc2)cc1)C(F)(F)F | 37.5 µM |

Tested on: MDA-MB-231 breast
Test: inhibition of tumour cell growth, NCI panel, 48 h

| SMILES | TGI | GI50 |
| --- | --- | --- |
| CC(O)(C(=O)N(O)c1ccc(Cl)cc1)c1ccc(Cl)cc1 (stereo not drawn) | 56.7 µM |  |
| CCOP(=O)(OCC)c1cc(-c2ccccc2)ccc1N | > 100 µM |  |
| CC1(C)OC(CCO)CN1C(=O)OCc1ccccc1 (stereo not drawn) | > 100 µM |  |
| COc1cc2c(cc1OCCCOc1cc3c(cc1OC)C(=O)N1CCC[C@H]1CN3)N=C[C@@H]1CCCN1C2=O | 16.6 µM |  |
| COc1ccc(N2C(=O)C3c4[nH]c5ccccc5c4C4C(C)CCCC4C3C2=O)cc1 (stereo not drawn) | 98.8 µM |  |
| CCOC(=O)C1=C(C)NC(=O)N([N+](=O)[O-])C1c1ccccc1C(F)(F)F (stereo not drawn) | > 100 µM |  |
| O=c1c(Cc2ccccc2)c(-c2ccccc2)[nH]n1C1=NCCN1 | > 100 µM |  |
| Brc1ccc2c(c1)-c1nc3c(cc1CC2)CCc1ccc(Br)cc1-3 | > 100 µM |  |
| CCOC(=O)c1ccc(C(=O)/C(C(=O)OC(C)(C)C)=C2\CCCN2C)n1C | > 100 µM |  |
| O=C1c2c(c3c4ccc(Br)cc4oc3c3[nH]c4ccccc4c23)C(=O)N1O | > 100 µM | 2.48 µM |
| O=[N+]([O-])c1ccc2nc3c(nc2c1)-c1c2ccccc2cc2cccc-3c12 | 64.2 µM |  |
| COc1ccc(CN2C(=O)C(=O)N(C)C2=O)c2ccccc12 | > 10 µM |  |
| OCC1OC(O[C@H]2CN3[C@H](O)[C@@H](O)[C@H](O)[C@H]3C2O)C(O)C(O)C1O (stereo partly drawn) | > 100 µM |  |
| CC1OC(n2cc(F)c(=O)[nH]c2=O)C(O[Si](C)(C)C(C)(C)C)C1O[Si](C)(C)C(C)(C)C (stereo not drawn) | 31.6 µM |  |
| CCOC(=O)c1c(NC(=S)Nc2ccc(C)cc2)sc2c1CCN(C)C2 | > 100 µM |  |
| c1ccc(-c2ccc(N=NN3CCCC3)cc2)cc1 | > 100 µM |  |
| COc1cc2c(cc1O)CC[n+]1cc3c(OC)c(OC)ccc3cc1-2 | > 100 µM |  |
| NS(=O)(=O)c1nnc(NSc2ccc([N+](=O)[O-])cc2)s1 | > 100 µM |  |
| Nc1nc(Nc2ccc(OCc3cccc(F)c3)cc2)c2c(n1)[nH]c1ccc(O)cc12 | 7.33 µM | 2.71 µM |
| CC1=NC(C)(C)N(O)C1(C)C | > 100 µM |  |

| SMILES | TGI | GI50 |
| --- | --- | --- |
| O=c1oc2ccccc2c2nc3ccccc3cc12 | > 100 µM |  |
| CCCC[C@@H]1CCN2C[C@@H](O)[C@@H](O)[C@H]2[C@@H]1O | > 100 µM |  |
| Clc1cccc(C2ON=C(c3ccccc3)N2C23CC4CC(CC(C4)C2)C3)c1Cl (stereo not drawn) | > 10 µM |  |
| CCN(CC(=O)O)CC(=O)O | > 100 µM |  |
| Cc1cc(C)nc(NS(=O)(=O)c2ccc(Nc3c4ccccc4nc4c(C(=O)NCCO)cccc34)cc2)n1 | 27.4 µM |  |
| COC1OC2COC(C)(C)OC2C2OC(C)(C)OC12 (stereo not drawn) | > 100 µM |  |
| CCNC(=S)N/N=C/c1ccccn1 | > 100 µM |  |
| O=C1NN=C(c2c[nH]c3ccccc23)CC1NCc1ccccc1 (stereo not drawn) | > 100 µM |  |
| C=C1CC=CC(C)(C)C1C/C=C(\C)C(O)CBr (stereo not drawn) | > 100 µM |  |
| O=C(NCCCNCCCCNCCCNC(=O)C(F)(F)F)C(F)(F)F | > 100 µM |  |
| O=C(O)c1cc2ccccc2c(S(=O)(=O)O)c1O | > 100 µM |  |
| COC(=O)c1sc2ncc3c(c2c1N)CC(C)CC3 (stereo not drawn) | > 100 µM |  |
| CCc1cc(=O)n(/C(C)=C/c2ccccc2)n1C | > 100 µM |  |
| CCOC(=O)c1[nH]c2nc(SC)nc(NC)c2c1N | > 100 µM |  |
| Cc1cccc(NC(Nc2cccc(C)c2)=C(C(Cl)=C(Cl)Cl)[N+](=O)[O-])c1 | 17 µM |  |
| CC1=CCC[C@H]2[C@](C)(CC3=CC(=O)C4SCCSC4C3=O)[C@@H](C)CC[C@]12C (stereo partly drawn) | 46.7 µM |  |
| C/C(=N\Nc1nc2ccccc2s1)c1cccnn1 | 36.2 µM |  |
| COC(=O)C1=C(C(=O)OC)C2(C)CCC(=O)C1O2 (stereo not drawn) | > 10 µM |  |
| FC(F)=C(c1ccc(-c2ccc(Cl)cc2)cc1)C(F)(F)F | 46.3 µM |  |
| N/C(CSCCSC/C(N)=N/O)=N\O | > 100 µM |  |

Tested on: SNB-75 CNS
Test: inhibition of tumour cell growth, NCI panel, 48 h

| SMILES | TGI | GI50 |
| --- | --- | --- |
| CCOP(=O)(OCC)c1cc(-c2ccccc2)ccc1N | > 100 µM |  |
| CC1(C)OC(CCO)CN1C(=O)OCc1ccccc1 (stereo not drawn) | > 100 µM |  |
| COc1cc2c(cc1OCCCOc1cc3c(cc1OC)C(=O)N1CCC[C@H]1CN3)N=C[C@@H]1CCCN1C2=O | 2.89 µM |  |
| COc1ccc(N2C(=O)C3c4[nH]c5ccccc5c4C4C(C)CCCC4C3C2=O)cc1 (stereo not drawn) | > 77 µM |  |
| O=c1c(Cc2ccccc2)c(-c2ccccc2)[nH]n1C1=NCCN1 | > 100 µM |  |
| Brc1ccc2c(c1)-c1nc3c(cc1CC2)CCc1ccc(Br)cc1-3 | > 100 µM |  |
| CN1c2ccccc2C(=O)NC12CCN(CC1COc3ccccc3O1)CC2 (stereo not drawn) | > 100 µM |  |
| CCOC(=O)C(NC(=O)c1ccc(N=NN(C)C)cc1)C(C)C (stereo not drawn) | > 100 µM |  |
| COc1cc(CCCOC2OC(COC3OCC(O)C(O)C3O)C(O)C(O)C2O)cc2cc(-c3ccc4c(c3)OCO4)oc12 (stereo not drawn) | > 175 µM |  |
| CCOC(=O)c1ccc(C(=O)/C(C(=O)OC(C)(C)C)=C2\CCCN2C)n1C | 77.8 µM |  |
| COc1ccc(CN2C(=O)C(=O)N(C)C2=O)c2ccccc12 | > 10 µM |  |
| CC1OC(n2cc(F)c(=O)[nH]c2=O)C(O[Si](C)(C)C(C)(C)C)C1O[Si](C)(C)C(C)(C)C (stereo not drawn) | 31.3 µM |  |
| CCOC(=O)c1c(NC(=S)Nc2ccc(C)cc2)sc2c1CCN(C)C2 | 0.0946 µM |  |
| c1ccc([P+](Cc2csnn2)(c2ccccc2)c2ccccc2)cc1 | > 100 µM |  |
| c1ccc(-c2ccc(N=NN3CCCC3)cc2)cc1 | > 100 µM |  |
| COc1cc2c(cc1O)CC[n+]1cc3c(OC)c(OC)ccc3cc1-2 | > 100 µM |  |
| Nc1nc(Nc2ccc(OCc3cccc(F)c3)cc2)c2c(n1)[nH]c1ccc(O)cc12 | 3.01 µM | 1.53 µM |
| CCC1(CC)C(=O)NC(=S)N=C1N | > 100 µM |  |
| CC1=NC(C)(C)N(O)C1(C)C | > 100 µM |  |

| SMILES | TGI | GI50 |
| --- | --- | --- |
| CCCC[C@@H]1CCN2C[C@@H](O)[C@@H](O)[C@H]2[C@@H]1O | > 100 µM |  |
| O=C(NN1C(=O)CSC1c1ccc(Cl)c(Cl)c1)c1ccncc1 (stereo not drawn) | > 100 µM |  |
| Clc1cccc(C2ON=C(c3ccccc3)N2C23CC4CC(CC(C4)C2)C3)c1Cl (stereo not drawn) | > 10 µM |  |
| CCN(CC(=O)O)CC(=O)O | > 100 µM |  |
| Cc1cc(C)nc(NS(=O)(=O)c2ccc(Nc3c4ccccc4nc4c(C(=O)NCCO)cccc34)cc2)n1 | 21.6 µM |  |
| CCNC(=S)N/N=C/c1ccccn1 | > 100 µM |  |
| O=C1NN=C(c2c[nH]c3ccccc23)CC1NCc1ccccc1 (stereo not drawn) | > 100 µM |  |
| O=C(NCCCNCCCCNCCCNC(=O)C(F)(F)F)C(F)(F)F | > 100 µM |  |
| CCOC(=O)C(C)NC(=O)N(C)C12CC3CC(CC(C3)C1)C2 (stereo not drawn) | 227 µM |  |
| O=C(O)c1cc2ccccc2c(S(=O)(=O)O)c1O | > 100 µM |  |
| O=c1c2cc3c(=O)n(CCc4ccccc4CO)c(=O)c3cc2c(=O)n1CCc1ccccc1CO | > 100 µM |  |
| COC(=O)c1sc2ncc3c(c2c1N)CC(C)CC3 (stereo not drawn) | > 100 µM |  |
| CCc1cc(=O)n(/C(C)=C/c2ccccc2)n1C | > 100 µM |  |
| CCOC(=O)c1[nH]c2nc(SC)nc(NC)c2c1N | > 100 µM |  |
| Cc1cccc(NC(Nc2cccc(C)c2)=C(C(Cl)=C(Cl)Cl)[N+](=O)[O-])c1 | > 68.6 µM |  |
| CC1=CCC[C@H]2[C@](C)(CC3=CC(=O)C4SCCSC4C3=O)[C@@H](C)CC[C@]12C (stereo partly drawn) | 80.8 µM |  |
| C/C(=N\Nc1nc2ccccc2s1)c1cccnn1 | 30.7 µM |  |
| COC(=O)C1=C(C(=O)OC)C2(C)CCC(=O)C1O2 (stereo not drawn) | > 10 µM |  |
| FC(F)=C(c1ccc(-c2ccc(Cl)cc2)cc1)C(F)(F)F | 25.6 µM |  |
